# Reference: patent publication EP2177218A1, “Regenerative therapy” (Medizinische Universität Wien, priority 2008, dated 2010)
# Entries after “also recorded” stand apart in the source; their conditions may differ.
# Tests used:
# [1] = tested on: OPCs; test: TUNEL assay (apoptosis); type: cell-based, Sprague-Dawley rat; settings: treated OPCs on MPE vs OPCs on PLL control, Fig. 7
# Method: Fragmented DNA was detected by incorporation of biotinylated nucleotides at the 3'-OH DNA ends using Terminal Deoxynucleotidyl Transferase recombinant (rTdT) enzyme according to the manufacturer's instruction (Promega). Stained cells were visualized by light microscopy and the percentage of apoptotic nuclei was determined.
# [2] = tested on: OPCs; test: OPC differentiation on myelin protein extract (MPE) or myelin substrate, O4 immunocytochemistry, pharmacological agents; type: cell-based, Sprague-Dawley rat; settings: for max. mean increase of OPC differentiation: 48 hours incubation in differentiation medium, Fig. 4; for mean increase of OPC differentiation: OPCs on myelin (MPE); for OPC differentiation / O4 expression in the presence of myelin inhibitors (result in words): differentiation medium
# Method: Primary cultures of oligodendrocyte precursor cells were isolated from PO-P2 neonatal Sprague-Dawley rat forebrains following a Standard protocol (McCarthy et al., J Cell Biol 85 (1980): 890-902) that were adapted for the present purpose (Syed et al. 2008, supra). In brief, hemispheres were stripped free of meninges, after a digestion step the cells were plated into cell culture flasks and mixed glia cultures were grown for approx. 10 days in DMEM medium supplemented with 10% PCS at 37°C and 7,5% CO2. To remove the loosely attached microglia the flasks were shaken for 1 hour at 260rpm on an orbital shaker before being shaken at 260rpm overnight to dislodge the loosely attached oligodendrocyte precursors. OPCs were further purified from contaminating microglia by a differential adhesion step. Subsequently OPCs were plated onto polylysine (PLL)-coated or Substrate coated dishes. To maintain cells at an early precursor stage PDGF-AA (Pepro Tech) and FGF (Pepro Tech) were added (10ng/ml) to SATOs medium. To induce differentiation cells were incubated in SATOs medium supplemented with 0.5% FCS. The purity of each culture was monitored following OPC purification by immunocytochemistry and only cultures with >94% purity were used. In the cultures minor contaminations of microglia that can be detected by isolectin staining and which amount to 4-5% of the cells, as well as by astrocytes (detectable by GFAP) and fibroblasts with distinct morphology, which account for about 1-2% of the cells are present.
# To prepare myelin protein extract (MPE) the pellets were re-suspended in 1% N-octyl β-D-glucopyranoside, 0.2M Sodiumphosphate pH 6.8, 0.1 M Na2SO4 and 1mM EDTA and incubated at 23°C for 2 hours. Following an ultracentrifugation step (100,000 x g, 18°C, 30 min) the supernatants were collected and stored at -20°C until further usage.
# The pooled OPCs harvested as outlined above were seeded at the same density of 20000 cells per well into polylysine (PLL)-coated 8-well chamber slides. Cells were differentiated for 48 hours and subsequently fixed with 4% paraformaldehyde in PBS, permeabilised and blocked with 0.3% Triton X-100 and 10% NGS. To assess the differentiation state of OPCs the cells were incubated with 04 antibody (1:100; Chemicon) for 1 hour in the presence of 0.1% Triton X-100 and 2% NGS, washed, and incubated for another 1 hour with the appropriate fluorescent secondary antibody (Cy3-conjugated antibody 1:100; Jackson Immuno Research) and the nuclei were stained using DAPI (Robinson et al., Dev Biol 216 (1999): 359-368; Syed et al. 2008, supra). It is important to note that permeabilisation of cells results in a punctate representation of the extracellular antigen 04 (Reynolds et al., Curr Opin Biotechnol 4 (1993): 734-738; Weiss et al., J Neurosci 16 (1996): 7599-7609; Syed et al. 2008, supra). Under an Olympus X51 fluorescent microscope using a triple-filter the percentage of O4-positive cells in relation to >100 DAPI-stained nuclei in randomly selected eye fields for each experimental condition were determined. To establish the purity of the OPC cultures immunocytochemistry for A2B5 (1:100; Chemicon) was performed according to the same principles and the percentage of A2B5+ cells to >100 DAPI-stained nuclei in randomly selected eye fields was determined. Only cell cultures with >94% A2B5-pos. cells were used for the present study. To assess the morphological phenotype of OPCs, A2B5+-cells were categorised according to the following criteria: stage 1: mono/bipolar; stage II: multipolar, primary branched; stage III: multipolar, secondary branched; stage IV: secondary branched cells with membranous processes.
# To examine whether ROCK-II and PKC Signal transduction is implicated in the myelin mediated differentiation block, pharmacological inhibitors were added to the culture medium immediately after cell seeding. […]
# [3] = tested on: CREB; test: CREB phosphorylation in OPCs (immunoprecipitation, Western blot for phospho-CREB); type: cell-based, Sprague-Dawley rat; settings: in the presence of MAI, Fig. 14
# [4] = tested on: EB lesions; test: In situ hybridisation for cell markers in EB lesions; type: in vivo, Sprague-Dawley rats; settings: 0,5mg/KG/d s.c.; for number of active OPCs (Nkx2.2): day 7, vs PBS vehicle; for macrophage marker MRSB (immune response): day 7 and day 14, vs PBS vehicle; for number of PDGFR-α positive OPCs in lesions / number of PLP positive cells (mature oligodendrocytes): day 14, vs PBS vehicle
# Method: To validate the finding that administration of rolipram promotes CNS remyelination, the experiments were repeated as follows. EB lesions were induced in Sprague-Dawley rats, and rats were treated either with rolipram (0,5mg/KG/d) or PBS vehicle administered via s.c. osmotic pumps implanted 3 days post lesion induction. Animals were sacrificed at day 7 and day 14 post lesion induction and the tissue processed for in situ hybridization. The lesion area was visualized and measured on digitized solochrome cyanine stained sections and the number of cells within the lesion area as detected by ISH was determined.
# PDGFR-α, a general marker for OPCs, was used to determine the presence of OPCs in the lesions.
# Nkx2.2 can be used to detect activated OPCs within remyelinating lesions.
# To detect mature oligodendrocytes, in situ hybridization for PLP was conducted. The extent of remyelination in control animals at 14 days is minimal. As to be expected in control animals the number of PLP positive cells remained unchanged at day 7 and day 14.
# Finally, ISH for MRSB, a marker for macrophages, was used to determine whether rolipram treatment affects the immune response.
# [5] = tested on: demyelinating lesions; test: Remyelination in vivo after ethidium bromide lesions, blind ranking of semithin resin sections; set-up: species or system Sprague Dawley rats; settings: 0.5 mg/kg/d s.c. osmotic pumps, 14 days post lesion induction, preliminary
# Method: The in vitro finding that rolipram is able to promote OPC differentiation in the presence of MAI was further developed to confirm remyelination in vivo. For this purpose demyelinating lesions were induced by topic injection of ethidium bromide into white matter tracts of young adult Sprague Dawley rats, and rolipram was applied subcutaneously by continuous osmotic pumps. 0,5mg/KG/d of rolipram was used in the first set of experiments that assessed the rate of remyelination. […] This is the first experiment that succeeded in enhancing the efficiency of remyelination in this model (Fig. 16).
molecule,measurement,setting,value
"12-(2-cyanoethyl)-6,7,12,13-tetrahydro-13-methyl-5-oxo-5H-indolo[2,3-a]pyrrollo[3,4-c]carbazole [Gö6976]","apoptosis, TUNEL positive cells",[1],no differences
same,max. mean increase of OPC differentiation,[2]; OPCs on MPE,269%
same,mean increase of OPC differentiation,"[2]; 50nM, n=3",267%
"[H]/N=C(/N)SCCCn1cc(C2=C(c3cn(C)c4ccccc34)C(=O)NC2=O)c2ccccc21 [BIM, Bisindolylmaleimide IX]",max. mean increase of OPC differentiation,[2]; OPCs on MPE,169%
same,mean increase of OPC differentiation,"[2]; 6.25nM, n=4",169%
"O=S(=O)(c1cccc2cnccc12)N1CCCNCC1 [HA-1077, 1-(5-lsoquinolinesulfonyl)-1H-hexahydro-1,4-diazepine 2 HCI]","apoptosis, TUNEL positive cells",[1],no significant differences
same,mean increase in the number of differentiating OPCs,"[2]; OPCs on MPE, 5µM, 48 hours in differentiation medium, n=4",174%
same,increase of differentiating cells,"[2]; OPCs on MPE, 48h culture in differentiation medium, Fig. 3b",more than 160%
same,OPC differentiation / O4 expression in the presence of myelin inhibitors (result in words),[2]; OPCs on MPE,largely restored
CCCC(=O)Nc1ncnc2c1ncn2[C@@H]1O[C@@H]2COP(=O)([O-])O[C@H]2[C@H]1OC(=O)CCC.[Na+] [db-cAMP],OPC differentiation / O4 expression in the presence of myelin inhibitors (result in words),[2]; OPCs on MPE,partially overcome
NCCCCN [putrescine],OPC differentiation / O4 expression in the presence of myelin inhibitors (result in words),[2]; OPCs on MPE,not the case
same,OPC differentiation / O4 expression in the presence of myelin inhibitors (result in words),"[2]; OPCs on MPE, listed as Putrescine",does not stimulate OPC differentiation
COc1ccc(C2CNC(=O)C2)cc1OC1CCCC1 (centres unmarked) [rolipram],CREB phosphorylation / activation in OPCs,[3],restores CREB activation
same,CREB phosphorylation / activation in OPCs,[3]; listed as Rolipram,inducing CREB phosphorylation
same,number of active OPCs (Nkx2.2),[4],effectively increased
same,number of active OPCs (Nkx2.2),[4]; listed as Rolipram,increase
same,macrophage marker MRSB (immune response),[4],no differences detected
same,macrophage marker MRSB (immune response),[4]; listed as Rolipram,did not affect the immune response
same,number of PDGFR-α positive OPCs in lesions,[4],remained elevated
same,number of PLP positive cells (mature oligodendrocytes),[4],significant increase
same,number of PDGFR-α positive OPCs in lesions,[4]; listed as Rolipram,maintained levels
same,number of PLP positive cells (mature oligodendrocytes),[4]; listed as Rolipram,strong increase
same,number of Nkx2.2 positive cells,"[4]; later stages (day 14), vs PBS vehicle",reached levels of control animals
same,differentiation capability of OPCs plated on MPE,[2]; 0.5µM in the medium,completely restore
same,OPC differentiation / O4 expression in the presence of myelin inhibitors (result in words),[2]; OPCs on MPE,able to induce OPC differentiation; also recorded: able to restore OPC differentiation
same,"extent of remyelination, rank assessment",[5],able to promote remyelination in-vivo; also recorded: potently enhanced
